Assay results taken from patent publication US9969694B2, “N-(arylalkyl)-N′-pyrazolyl-urea, thiourea, guanidine and cyanoguanidine compounds as TrkA kinase inhibitors” (Array BioPharma Inc., priority 2012, dated 2018).

What was measured:
Assay in all cases: Off-Target Kinase Profiling
Type in all cases: biochemical
Details in all cases: 10 μM; ATP near Km
LKB1 = biological target: T1, LKB1 (Homo sapiens, UniProt Q15831)
T1 construct: purchased Millipore, Inc. (KinaseProfiler service)
Summary of the method: (§1)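 Compounds were screened at 10 μM in duplicate against a broad kinase panel, with ATP near the Km of each kinase. Values are percent of control, averaged over the two replicates.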

MLK1 = biological target: T2, MLK1 (Homo sapiens, UniProt P80192)
T2 construct: purchased Millipore, Inc. (KinaseProfiler service)
Summary of the method: as §1

BLK_m = biological target: T3, BLK_m (Mus musculus, UniProt P16277)
T3 construct: purchased Millipore (KinaseProfiler service)
Summary of the method: as §1

GSK3alpha = biological target: T4, GSK3alpha (Homo sapiens, UniProt P49840)
T4 construct: purchased Millipore, Inc. (KinaseProfiler service)
Summary of the method: as §1

PhKgamma2 = biological target: T5, PhKgamma2 (Homo sapiens, UniProt P15735)
T5 construct: purchased Millipore, Inc. (KinaseProfiler service)
Summary of the method: as §1

Plk2 = biological target: T6, Plk2 (Homo sapiens, UniProt Q9NYY3)
T6 construct: purchased Millipore, Inc. (KinaseProfiler service)
Summary of the method: as §1

ULK2 = biological target: T7, ULK2 (Homo sapiens, UniProt Q8IYT8)
T7 construct: purchased Millipore, Inc. (KinaseProfiler service)
Summary of the method: as §1

SRPK1 = biological target: T8, SRPK1 (Homo sapiens, UniProt Q96SB4)
T8 construct: purchased Millipore, Inc. (KinaseProfiler service)
Summary of the method: as §1

CAMK2g = biological target: T9, CAMK2g (Homo sapiens, UniProt Q13555)
T9 construct: purchased Millipore (KinaseProfiler service)
Summary of the method: as §1

KDR = biological target: T10, KDR (Homo sapiens, UniProt P35968)
T10 construct: purchased Millipore, Inc. (KinaseProfiler service)
Summary of the method: as §1

Rsk1 = biological target: T11, Rsk1 (Homo sapiens, UniProt Q15418)
T11 construct: purchased Millipore, Inc. (KinaseProfiler service)
Summary of the method: as §1

SRC = biological target: T12, SRC (Homo sapiens, UniProt P12931)
T12 construct: purchased Millipore, Inc. (KinaseProfiler service)
Summary of the method: as §1

PrKX = biological target: T13, PrKX (Homo sapiens, UniProt P51817)
T13 construct: purchased Millipore, Inc. (KinaseProfiler service)
Summary of the method: as §1

TAO1 = biological target: T14, TAO1 (Homo sapiens, UniProt Q7L7X3)
T14 construct: purchased Millipore, Inc. (KinaseProfiler service)
Summary of the method: as §1

PKD1 = biological target: T15, PKD1 (Homo sapiens, UniProt Q15139)
T15 construct: purchased Millipore, Inc. (KinaseProfiler service)
Summary of the method: as §1

TAK1 = biological target: T16, TAK1 (Homo sapiens, UniProt O43318)
T16 construct: purchased Millipore, Inc. (KinaseProfiler service)
Summary of the method: as §1

SRPK2 = biological target: T17, SRPK2 (Homo sapiens, UniProt P78362)
T17 construct: purchased Millipore, Inc. (KinaseProfiler service)
Summary of the method: as §1

MST1 = biological target: T18, MST1 (Homo sapiens, UniProt Q13043)
T18 construct: purchased Millipore, Inc. (KinaseProfiler service)
Summary of the method: as §1

TNK2 = biological target: T19, TNK2 (Homo sapiens, UniProt Q07912)
T19 construct: purchased Millipore, Inc. (KinaseProfiler service)
Summary of the method: as §1

AMPK(A1/B1/G1) = biological target: T20, AMPK(A1/B1/G1) (Homo sapiens, UniProt Q13131)
T20 construct: purchased Millipore (KinaseProfiler service)
Summary of the method: as §1

p38beta = biological target: T21, p38beta (Homo sapiens, UniProt Q15759)
T21 construct: purchased Millipore, Inc. (KinaseProfiler service)
Summary of the method: as §1

Rsk4 = biological target: T22, Rsk4 (Homo sapiens, UniProt Q9UK32)
T22 construct: purchased Millipore, Inc. (KinaseProfiler service)
Summary of the method: as §1

CDK7/cyclinH/MAT1 = biological target: T23, CDK7/cyclinH/MAT1 (Homo sapiens, UniProt P50613)
T23 construct: purchased Millipore, Inc. (KinaseProfiler service)
Summary of the method: as §1

EphB4 = biological target: T24, EphB4 (Homo sapiens, UniProt P54760)
T24 construct: purchased Millipore, Inc. (KinaseProfiler service)
Summary of the method: as §1

ALK = biological target: T25, ALK (Homo sapiens, UniProt Q9UM73)
T25 construct: purchased Millipore (KinaseProfiler service)
Summary of the method: as §1

TrkA = biological target: T26, TrkA (Homo sapiens, UniProt P04629)
T26 construct: purchased Millipore, Inc. (KinaseProfiler service)
Summary of the method: as §1

WNK3 = biological target: T27, WNK3 (Homo sapiens, UniProt Q9BYP7)
T27 construct: purchased Millipore, Inc. (KinaseProfiler service)
Summary of the method: as §1

Plk1 = biological target: T28, Plk1 (Homo sapiens, UniProt P53350)
T28 construct: purchased Millipore, Inc. (KinaseProfiler service)
Summary of the method: as §1

IRR = biological target: T29, IRR (Homo sapiens, UniProt P14616)
T29 construct: purchased Millipore, Inc. (KinaseProfiler service)
Summary of the method: as §1

mTOR/FKBP12 = biological target: T30, mTOR/FKBP12 (Homo sapiens, UniProt P42345)
T30 construct: purchased Millipore, Inc. (KinaseProfiler service)
Summary of the method: as §1

Fes = biological target: T31, Fes (Homo sapiens, UniProt P07332)
T31 construct: purchased Millipore, Inc. (KinaseProfiler service)
Summary of the method: as §1

MARK2 = biological target: T32, MARK2 (Homo sapiens, UniProt Q7KZI7)
T32 construct: purchased Millipore, Inc. (KinaseProfiler service)
Summary of the method: as §1

GRK5 = biological target: T33, GRK5 (Homo sapiens, UniProt P34947)
T33 construct: purchased Millipore, Inc. (KinaseProfiler service)
Summary of the method: as §1

Abl-P = biological target: T34, Abl-P (Homo sapiens, UniProt P00519)
T34 construct: purchased Millipore (KinaseProfiler service)
Summary of the method: as §1

c-RAF = test system: c-RAF
Summary of the method: as §1

PKCiota = biological target: T35, PKCiota (Homo sapiens, UniProt P41743)
T35 construct: purchased Millipore, Inc. (KinaseProfiler service)
Summary of the method: as §1

DAPK2 = biological target: T36, DAPK2 (Homo sapiens, UniProt Q9UIK4)
T36 construct: purchased Millipore, Inc. (KinaseProfiler service)
Summary of the method: as §1

MAP3K5 = biological target: T37, MAP3K5 (Homo sapiens, UniProt Q99683)
T37 construct: purchased Millipore, Inc. (KinaseProfiler service)
Summary of the method: as §1

ERK1 = biological target: T38, ERK1 (Homo sapiens, UniProt P27361)
T38 construct: purchased Millipore, Inc. (KinaseProfiler service)
Summary of the method: as §1

EphA8 = biological target: T39, EphA8 (Homo sapiens, UniProt P29322)
T39 construct: purchased Millipore, Inc. (KinaseProfiler service)
Summary of the method: as §1

DRAK1 = biological target: T40, DRAK1 (Homo sapiens, UniProt Q9UEE5)
T40 construct: purchased Millipore, Inc. (KinaseProfiler service)
Summary of the method: as §1

T12 sequence (P12931 whole entry): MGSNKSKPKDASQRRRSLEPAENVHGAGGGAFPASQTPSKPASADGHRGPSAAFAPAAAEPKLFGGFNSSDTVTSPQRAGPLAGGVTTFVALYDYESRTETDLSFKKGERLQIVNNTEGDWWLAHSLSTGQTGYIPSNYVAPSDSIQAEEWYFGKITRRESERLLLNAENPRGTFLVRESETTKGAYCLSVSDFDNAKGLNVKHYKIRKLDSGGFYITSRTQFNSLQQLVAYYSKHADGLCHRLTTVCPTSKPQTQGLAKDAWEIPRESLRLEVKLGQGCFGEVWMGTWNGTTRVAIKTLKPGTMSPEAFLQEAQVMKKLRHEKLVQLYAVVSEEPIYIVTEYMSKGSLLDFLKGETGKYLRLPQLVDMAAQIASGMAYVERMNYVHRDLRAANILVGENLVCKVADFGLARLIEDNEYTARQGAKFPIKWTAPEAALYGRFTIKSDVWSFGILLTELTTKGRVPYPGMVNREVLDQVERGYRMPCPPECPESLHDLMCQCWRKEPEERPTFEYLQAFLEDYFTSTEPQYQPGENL
T22 sequence (Q9UK32 whole entry): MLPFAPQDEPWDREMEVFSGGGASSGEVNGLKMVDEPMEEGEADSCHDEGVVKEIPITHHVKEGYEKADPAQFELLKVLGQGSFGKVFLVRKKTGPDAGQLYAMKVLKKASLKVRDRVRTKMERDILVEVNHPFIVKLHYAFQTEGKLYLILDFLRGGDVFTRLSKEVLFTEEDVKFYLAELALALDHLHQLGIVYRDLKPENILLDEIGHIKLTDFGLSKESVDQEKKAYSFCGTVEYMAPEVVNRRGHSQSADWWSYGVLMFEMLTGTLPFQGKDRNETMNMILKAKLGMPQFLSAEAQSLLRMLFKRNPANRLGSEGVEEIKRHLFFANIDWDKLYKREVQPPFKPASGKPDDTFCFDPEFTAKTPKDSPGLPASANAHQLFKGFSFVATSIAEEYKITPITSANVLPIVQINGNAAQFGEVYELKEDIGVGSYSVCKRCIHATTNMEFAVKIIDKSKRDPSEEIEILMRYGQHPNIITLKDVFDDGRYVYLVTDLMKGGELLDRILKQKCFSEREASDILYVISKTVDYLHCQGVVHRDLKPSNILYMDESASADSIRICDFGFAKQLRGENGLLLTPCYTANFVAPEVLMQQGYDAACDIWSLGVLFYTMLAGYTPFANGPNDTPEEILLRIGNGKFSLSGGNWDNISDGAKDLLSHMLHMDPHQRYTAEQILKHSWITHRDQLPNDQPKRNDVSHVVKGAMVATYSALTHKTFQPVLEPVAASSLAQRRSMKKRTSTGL
T28 sequence (P53350 whole entry): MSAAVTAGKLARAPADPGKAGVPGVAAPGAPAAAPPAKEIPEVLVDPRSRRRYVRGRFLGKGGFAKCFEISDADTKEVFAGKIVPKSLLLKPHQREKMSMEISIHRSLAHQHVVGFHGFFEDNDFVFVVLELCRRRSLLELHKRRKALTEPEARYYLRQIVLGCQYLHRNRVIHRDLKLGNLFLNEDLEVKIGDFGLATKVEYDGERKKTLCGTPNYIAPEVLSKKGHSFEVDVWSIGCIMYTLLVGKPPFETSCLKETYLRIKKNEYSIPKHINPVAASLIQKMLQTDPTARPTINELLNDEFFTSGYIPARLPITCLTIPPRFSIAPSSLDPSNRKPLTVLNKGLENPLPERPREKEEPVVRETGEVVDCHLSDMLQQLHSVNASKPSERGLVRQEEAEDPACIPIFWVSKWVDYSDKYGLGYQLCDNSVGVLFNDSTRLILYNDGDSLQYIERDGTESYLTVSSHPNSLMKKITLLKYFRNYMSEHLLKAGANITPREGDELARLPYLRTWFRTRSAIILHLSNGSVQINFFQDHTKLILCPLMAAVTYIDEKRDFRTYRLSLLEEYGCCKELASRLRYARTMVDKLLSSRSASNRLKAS
T4 sequence (P49840 whole entry): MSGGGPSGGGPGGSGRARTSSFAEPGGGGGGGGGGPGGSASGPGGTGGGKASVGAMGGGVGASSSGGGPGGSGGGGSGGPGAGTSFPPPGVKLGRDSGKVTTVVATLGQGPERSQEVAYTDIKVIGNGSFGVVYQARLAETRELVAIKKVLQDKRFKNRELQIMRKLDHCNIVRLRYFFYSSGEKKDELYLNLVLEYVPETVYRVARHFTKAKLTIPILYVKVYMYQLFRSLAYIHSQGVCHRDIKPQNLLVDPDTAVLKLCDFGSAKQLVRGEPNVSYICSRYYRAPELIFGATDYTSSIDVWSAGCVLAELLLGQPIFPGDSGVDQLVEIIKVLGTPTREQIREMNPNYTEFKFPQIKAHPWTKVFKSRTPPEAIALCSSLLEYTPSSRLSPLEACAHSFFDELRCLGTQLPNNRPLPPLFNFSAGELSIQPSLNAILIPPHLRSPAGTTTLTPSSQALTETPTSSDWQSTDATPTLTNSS
T27 sequence (Q9BYP7 whole entry): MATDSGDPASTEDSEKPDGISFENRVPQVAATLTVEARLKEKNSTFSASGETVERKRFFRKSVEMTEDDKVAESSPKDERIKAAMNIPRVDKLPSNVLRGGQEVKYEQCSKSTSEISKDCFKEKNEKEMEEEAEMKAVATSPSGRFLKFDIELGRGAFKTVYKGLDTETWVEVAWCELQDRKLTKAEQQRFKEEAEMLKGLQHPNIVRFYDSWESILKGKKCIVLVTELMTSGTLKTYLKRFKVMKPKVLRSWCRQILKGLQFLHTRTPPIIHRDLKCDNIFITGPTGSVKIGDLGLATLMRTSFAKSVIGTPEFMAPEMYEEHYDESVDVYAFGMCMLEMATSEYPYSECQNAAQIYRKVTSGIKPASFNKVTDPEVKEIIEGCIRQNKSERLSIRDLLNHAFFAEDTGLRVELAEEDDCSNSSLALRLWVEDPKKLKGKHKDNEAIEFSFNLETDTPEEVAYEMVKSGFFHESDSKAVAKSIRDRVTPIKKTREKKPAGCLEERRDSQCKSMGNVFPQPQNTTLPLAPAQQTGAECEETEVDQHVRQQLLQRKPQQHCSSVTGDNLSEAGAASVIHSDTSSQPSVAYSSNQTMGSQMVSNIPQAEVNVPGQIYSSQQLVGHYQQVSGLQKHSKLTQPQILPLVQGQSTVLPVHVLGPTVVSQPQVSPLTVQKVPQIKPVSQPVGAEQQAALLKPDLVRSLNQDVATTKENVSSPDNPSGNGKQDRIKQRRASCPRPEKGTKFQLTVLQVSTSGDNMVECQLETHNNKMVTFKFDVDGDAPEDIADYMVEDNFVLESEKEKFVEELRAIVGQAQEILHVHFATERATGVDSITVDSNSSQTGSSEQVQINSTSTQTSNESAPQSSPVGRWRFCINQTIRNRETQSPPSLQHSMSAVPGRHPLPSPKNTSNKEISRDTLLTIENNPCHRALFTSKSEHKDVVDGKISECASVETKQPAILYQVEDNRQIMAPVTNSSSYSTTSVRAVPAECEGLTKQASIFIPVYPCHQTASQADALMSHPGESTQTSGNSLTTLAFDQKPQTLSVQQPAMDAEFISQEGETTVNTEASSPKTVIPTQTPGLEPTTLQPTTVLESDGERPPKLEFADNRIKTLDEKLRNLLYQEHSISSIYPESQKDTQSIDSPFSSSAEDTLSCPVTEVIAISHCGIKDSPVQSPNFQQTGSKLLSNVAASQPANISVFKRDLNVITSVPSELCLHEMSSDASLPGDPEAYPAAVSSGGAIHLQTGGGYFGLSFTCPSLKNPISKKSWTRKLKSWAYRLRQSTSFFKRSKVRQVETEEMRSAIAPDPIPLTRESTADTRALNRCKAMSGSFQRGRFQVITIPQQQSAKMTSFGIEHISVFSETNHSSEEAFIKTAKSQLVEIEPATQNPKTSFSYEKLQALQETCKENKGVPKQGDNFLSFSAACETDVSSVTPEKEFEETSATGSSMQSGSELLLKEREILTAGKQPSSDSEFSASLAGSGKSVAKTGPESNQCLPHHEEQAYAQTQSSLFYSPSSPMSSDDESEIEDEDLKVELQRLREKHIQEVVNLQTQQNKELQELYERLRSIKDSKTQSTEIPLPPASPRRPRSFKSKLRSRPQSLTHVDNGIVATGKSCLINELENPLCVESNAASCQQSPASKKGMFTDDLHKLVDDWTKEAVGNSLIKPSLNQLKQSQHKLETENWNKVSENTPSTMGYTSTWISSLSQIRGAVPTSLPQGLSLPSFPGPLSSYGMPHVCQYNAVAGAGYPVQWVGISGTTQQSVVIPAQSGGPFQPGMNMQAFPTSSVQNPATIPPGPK
T21 sequence (Q15759 whole entry): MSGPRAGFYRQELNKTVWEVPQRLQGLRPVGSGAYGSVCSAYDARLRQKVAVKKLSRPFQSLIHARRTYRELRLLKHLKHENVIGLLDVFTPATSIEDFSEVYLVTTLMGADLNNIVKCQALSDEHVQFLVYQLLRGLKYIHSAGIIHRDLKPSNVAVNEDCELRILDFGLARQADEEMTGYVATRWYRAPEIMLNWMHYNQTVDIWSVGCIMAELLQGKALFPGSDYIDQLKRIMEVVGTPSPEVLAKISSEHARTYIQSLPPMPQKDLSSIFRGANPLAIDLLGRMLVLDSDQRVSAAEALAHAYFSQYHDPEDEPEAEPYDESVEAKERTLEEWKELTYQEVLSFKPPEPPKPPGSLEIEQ
T18 sequence (Q13043 whole entry): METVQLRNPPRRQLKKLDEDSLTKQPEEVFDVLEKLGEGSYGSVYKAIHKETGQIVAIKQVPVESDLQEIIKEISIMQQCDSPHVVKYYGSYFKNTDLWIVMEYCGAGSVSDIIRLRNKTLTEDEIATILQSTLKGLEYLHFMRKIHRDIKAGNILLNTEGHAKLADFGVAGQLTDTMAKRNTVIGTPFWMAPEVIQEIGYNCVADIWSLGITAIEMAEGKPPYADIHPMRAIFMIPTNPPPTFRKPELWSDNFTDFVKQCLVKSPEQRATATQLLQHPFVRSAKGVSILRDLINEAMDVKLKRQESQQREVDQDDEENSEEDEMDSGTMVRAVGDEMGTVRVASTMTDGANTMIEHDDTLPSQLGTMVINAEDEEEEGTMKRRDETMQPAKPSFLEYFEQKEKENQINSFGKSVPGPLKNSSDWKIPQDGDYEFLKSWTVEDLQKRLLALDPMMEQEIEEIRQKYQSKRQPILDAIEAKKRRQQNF

## COCc1ccc(C(F)(F)F)c(CNC(=O)Nc2c(C)c(-c3cnn(C)c3)nn2-c2ccccc2)c1 [Example 33, 1-(1′,4-dimethyl-1-phenyl-1H,1′H-[3,4′-bipyrazol]-5-yl)-3-(5-(methoxymethyl)-2-(trifluoromethyl)benzyl)urea]
LKB1
  Avg POC LKB1: 90 POC
MLK1
  Avg POC MLK1: 105.5 POC
BLK_m
  Avg POC BLK_m: 119 POC
GSK3alpha
  Avg POC GSK3alpha: 161 POC
PhKgamma2
  Avg POC PhKgamma2: 116 POC
Plk2
  Avg POC Plk2: 102 POC
ULK2
  Avg POC ULK2: 98.5 POC
SRPK1
  Avg POC SRPK1: 113.5 POC
CAMK2g
  Avg POC CAMK2g: 112 POC
KDR
  Avg POC KDR: 139.5 POC
Rsk1
  Avg POC Rsk1: 119.5 POC
SRC
  Avg POC SRC: 101 POC
PrKX
  Avg POC PrKX: 146.5 POC
TAO1
  Avg POC TAO1: 118.5 POC
PKD1
  Avg POC PKD1: 94 POC
TAK1
  Avg POC TAK1: 88.5 POC
SRPK2
  Avg POC SRPK2: 112 POC
MST1
  Avg POC MST1: 87.5 POC
TNK2
  Avg POC TNK2: 119.5 POC
AMPK(A1/B1/G1)
  Avg POC AMPK(A1/B1/G1): 147.5 POC
p38beta
  Avg POC p38beta: 111.5 POC
Rsk4
  Avg POC Rsk4: 95 POC
CDK7/cyclinH/MAT1
  Avg POC CDK7/cyclinH/MAT1: 113.5 POC
EphB4
  Avg POC EphB4: 128 POC
ALK
  Avg POC ALK: 116 POC
TrkA
  Avg POC TrkA: −1 POC
WNK3
  Avg POC WNK3: 111 POC
Plk1
  Avg POC Plk1: 93 POC
IRR
  Avg POC IRR: 96.5 POC
mTOR/FKBP12
  Avg POC mTOR/FKBP12: 109.5 POC
Fes
  Avg POC Fes: 109 POC
MARK2
  Avg POC MARK2: 103.5 POC
GRK5
  Avg POC GRK5: 82 POC
Abl-P
  Avg POC Abl-P: 170.5 POC
c-RAF
  Avg POC c-RAF: 94.5 POC
PKCiota
  Avg POC PKCiota: 64 POC
DAPK2
  Avg POC DAPK2: 109.5 POC
MAP3K5
  Avg POC MAP3K5: 100 POC
ERK1
  Avg POC ERK1: 95.5 POC
EphA8
  Avg POC EphA8: 123 POC
DRAK1
  Avg POC DRAK1: 141.5 POC
